Assay results published in patent publication US20240124504A1, “AROMATIC HETEROCYCLIC COMPOUND, AND PHARMACEUTICAL COMPOSITION AND APPLICATION THEREOF” (GT APEIRON THERAPEUTICS LIMITED, priority 2020, published 2024).

What was measured:
[1] = target: CDK2/cyclinE1 complex (Homo sapiens, UniProt P24941); test: In-vitro enzymatic inhibitory activity testing, CDK2 inhibition assay (Caliper EZ Reader II); format: biochemical; conditions: CDK2/cyclinE1 0.5 nM, 180 min at 27° C.
In short: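 CDK2/cyclinE1 (0.5 nM) phosphorylated 5-FAM-CDK7tide (2 μM) in MES buffer pH 6.5 with MgCl2, Tween 20 and BSA. Substrate and product were separated electrophoretically on a Caliper EZ Reader II. IC50 values came from nonlinear dose-response fits.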

[2] = target: T1, CDK12 (aa686-1082)/cyclinK complex (Homo sapiens, UniProt Q9NYV4); test: In-vitro enzymatic inhibitory activity testing, CDK12 inhibition assay (Caliper EZ Reader II); format: biochemical; conditions: CDK12/cyclinK 50 nM, 180 min at 27° C.; read-out: CDK12 IC50
T1 construct: A CDK12 (aa686-1082)/cyclinK complex (50 nM)
In short: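 Caliper EZ Reader II mobility-shift separation of 5-FAM-CDK9tide substrate (2 μM) from phosphoproduct, using 50 nM CDK12 (aa686-1082)/cyclinK in 80 mM MES pH 6.5, 10 mM MgCl2, 0.01% Tween 20, 50 ug/mL BSA. Compound pre-incubated 10 min with enzyme, then substrate/ATP added for 180 min at 27° C; EDTA stop. IC50 by nonlinear dose-response regression.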

[3] = system: Caco-2 cells; test: Caco-2 membrane permeability and efflux rate; format: in vitro ADME; conditions: Caco-2, 5 μM, 2 hours; for Papp(B-A): basal end to top end; for Papp(A-B): top end to basal end
In short: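 Caco-2 monolayers after 14-18 days' culture; compound at 5 μM final in HBSS (10 mM HEPES, pH 7.4), apical-to-basal and basal-to-apical, 2 h at 37° C. LC/MS/MS gives Papp (10-6 cm/s) and efflux ratio; lucifer yellow checks monolayer integrity.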

T1 sequence (Q9NYV4 686-1082, species assumed): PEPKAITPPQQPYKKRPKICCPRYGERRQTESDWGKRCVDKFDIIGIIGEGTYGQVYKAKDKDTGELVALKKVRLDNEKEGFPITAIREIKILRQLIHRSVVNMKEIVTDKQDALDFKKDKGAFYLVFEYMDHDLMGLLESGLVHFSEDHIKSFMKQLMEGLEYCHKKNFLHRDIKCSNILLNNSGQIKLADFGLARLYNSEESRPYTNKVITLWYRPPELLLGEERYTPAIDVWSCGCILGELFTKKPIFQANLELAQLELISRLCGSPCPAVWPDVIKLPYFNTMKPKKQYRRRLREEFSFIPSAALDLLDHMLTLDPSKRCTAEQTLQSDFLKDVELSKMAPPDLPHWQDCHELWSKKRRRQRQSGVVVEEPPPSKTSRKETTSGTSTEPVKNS
T1 sequence (O75909 whole entry partner, species assumed, the tested form may be a part): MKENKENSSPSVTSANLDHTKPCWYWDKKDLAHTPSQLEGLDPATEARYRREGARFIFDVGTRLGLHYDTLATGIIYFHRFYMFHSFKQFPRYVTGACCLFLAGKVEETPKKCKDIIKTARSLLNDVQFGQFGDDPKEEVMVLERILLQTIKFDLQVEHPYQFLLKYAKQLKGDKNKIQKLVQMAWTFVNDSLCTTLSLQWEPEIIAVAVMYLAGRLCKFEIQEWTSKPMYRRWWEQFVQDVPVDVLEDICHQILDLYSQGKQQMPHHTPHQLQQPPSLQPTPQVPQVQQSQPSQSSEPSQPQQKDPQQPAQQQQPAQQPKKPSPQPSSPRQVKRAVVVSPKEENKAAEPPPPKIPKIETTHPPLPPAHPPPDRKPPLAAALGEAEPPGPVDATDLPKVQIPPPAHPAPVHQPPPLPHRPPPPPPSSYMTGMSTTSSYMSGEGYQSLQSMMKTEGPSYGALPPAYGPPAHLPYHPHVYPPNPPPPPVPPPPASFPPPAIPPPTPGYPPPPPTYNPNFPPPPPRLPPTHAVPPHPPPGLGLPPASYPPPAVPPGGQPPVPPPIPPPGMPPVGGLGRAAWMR

Compound | IC50 [1] | IC50 [2] | ER (efflux rate) [3] | Papp(B-A) [3] | Papp(A-B) [3]
CP(C)(=O)c1cccc2c(-c3nc(NC4(CO)CCOC4)ncc3C(F)(F)F)c[nH]c12 (single isomer, unassigned) [Compound 119] | 5 to 50 µM | > 50 µM | 15.3 | 34.09 10^−6, cm/s | 2.23 10^−6, cm/s
CC(O)[C@H](C)Nc1ncc(C(F)(F)F)c(-c2c[nH]c3c(P(C)(C)=O)cccc23)n1 (single isomer, unassigned) [Compound 130] | 5 to 50 µM | > 50 µM | 6.03 | 35.08 10^−6, cm/s | 5.82 10^−6, cm/s
CP(C)(=O)c1cccc2c(-c3nc(NCC4CC4CO)ncc3C(F)(F)F)c[nH]c12 (single isomer, unassigned) [Compound 144] | 5 to 50 µM | > 50 µM | 12.7 | 36.73 10^−6, cm/s | 2.89 10^−6, cm/s
CC(CO)CNc1ncc(C(F)(F)F)c(-c2c[nH]c3c(P(C)(C)=O)cccc23)n1 (single isomer, unassigned) [Compound 150] | 0.2 to 5 µM | > 50 µM | 5.95 | 27.87 10^−6, cm/s | 4.68 10^−6, cm/s
C[C@@H](CO)Nc1ncc(C#N)c(-c2c[nH]c3c(P(C)(C)=O)cccc23)n1 [Compound 179, (S)-4-(7-(dimethylphosphoryl)-1H-indole-3-yl)-2-((1-hydroxypropan-2-yl)amino)pyrimidine-5-carbonitrile] | 0.2 to 5 µM | 5 to 50 µM |  |  | 
C[C@@H](CO)Nc1ncc(C(F)(F)F)c(-c2c[nH]c3c(P(C)(C)=O)c(F)ccc23)n1 [Compound 195] | 0.2 to 5 µM | 5 to 50 µM |  |  | 
